Measurements: patent US6887867B2, “5H-2,3-benzodiazepine antagonists of excitatory amino acid receptors” (Transgenomic, Inc., priority 2000, dated 2005)
Like-named read-outs stand apart in the source and are kept apart here.

What was measured:
[1] = test system: AMPA receptor; experiment: Inhibition of Ca2+ influx into cortical cells stimulated with AMPA; assay type: cell-based; conditions: cortical cells stimulated with 50 μM AMPA; fluorescence readout
Method: Three of the antagonists disclosed herein were tested, in vitro, for inhibition of Ca^2+ influx into cortical cells stimulated with AMPA. They are 1-(4-Aminophenyl)-3,5-dihydro-4-methyl-3-acetyl-7-methoxy-5H-2,3-benzodiazepine (8) (SYM 2267), 1-(4-Aminophenyl)-3,5-dihydro-4-methyl-3-acetyl-8-methoxy-5H-2,3-benzodiazepine (21) (SYM 2268), and 1-(4-Aminophenyl)-3,5-dihydro-4-methyl-3-acetyl-7-amino-8-methoxy-5H-2,3-benzodiazepine (27) (SYM 2269), respectively. The in vitro test measures inhibition of Ca^2+ influx into cortical cells stimulated with 50 µM AMPA by the test compounds. The rationale underlying this assay is that stimulation of the cortical cells with AMPA activates AMPA receptors causing Ca^2+ influx with an increase in intracellular Ca^2+ which is then detected by measuring an increase in fluorescence. The Ca^2+ increase comes mostly from extracellular (influx of Ca^2+ through the channel into the cell), but could also come from intracellular sources (release of Ca^2+ from storage). The inhibition of the AMPA receptor function is detected by a decrease in the level of intracellular Ca^2+ and a decrease in fluorescence.

[2] = test system: MES seizures; experiment: Maximal electro shock (MES) seizure model; assay type: in vivo; conditions: rats
Method: The extent of protection by a test compound in a seizure model is tested as described by Rogawski et al. (Epilepsy Research, 15:179-184, 1993). Male NIH Swiss mice (25-30 g) are injected ip with the test drug. The mice are subjected to a 0.2 sec, 60 Hz, 50 mA electrical stimulus delivered with corneal electrodes wetted with 0.9% saline at 15-30 min post dosing. Animals failing to show tonic hind limb extension are scored as protected. Compounds may be selected which are active in this model.
SYM 2267 was evaluated for in vivo anticonvulsant activity in the maximal electro shock (MES) model in rats.

[3] = Rotorod test; assay type: in vivo; conditions: rats, PO
[4] = test system: global ischemia; conditions: rat common carotid arteries model; cited from earlier work
[5] = test system: focal ischemia; conditions: rat MCAO, cited from earlier work

SMILES: COc1ccc2c(c1)C(c1ccc(N)cc1)=NN(C(C)=O)C(C)C2 (stereo not drawn) [SYM 2268, 1-(4-Aminophenyl)-3,5-dihydro-4-methyl-3-acetyl-8-methoxy-5H-2,3-benzodiazepine]
- IC50 [1]: 16.6 µM

SMILES: COc1ccc2c(c1)CC(C)N(C(C)=O)N=C2c1ccc(N)cc1 (stereo not drawn) [SYM 2267, 1-(4-Aminophenyl)-3,5-dihydro-4-methyl-3-acetyl-7-methoxy-5H-2,3-benzodiazepine]
- ED50 ([2]; Rattus norvegicus, MES model, read-out: MES effective dosage (ED50)): 8.4 mg/kg
- Protection from MES seizures ([2]; orally (PO), 30 mg/kg): fully protected
- Sedative or toxic side effects in the rotorod test [3]: No sedative or toxic side effects were observed
- IC50 [1]: 26.1 µM

SMILES: COc1cc2c(cc1N)CC(C)N(C(C)=O)N=C2c1ccc(N)cc1 (stereo not drawn) [SYM 2269, 1-(4-Aminophenyl)-3,5-dihydro-4-methyl-3-acetyl-7-amino-8-methoxy-5H-2,3-benzodiazepine]
- IC50 [1]: 7.3 µM

SMILES: CC1=NN=C(c2ccc(N)cc2)c2cc3c(cc2C1)OCO3 [GYKI 52466]
- Efficacy in global ischemia compared with NBQX [4]: as effective as the glutamate site competitive antagonist NBQX
- Reduction of cortical infarct volume ([5]; dosing delayed for one hour): 48%
- Reduction of cortical infarct volume ([5]; given continuously for 2 hours just after occlusion): 68%
